The results in this text go back to patent US7985745B2, “Method for pain treatment” (Abbott Laboratories, priority 2006, dated 2011).

Each structure is given as a SMILES string.

For the test, the system named is osteoarthritis pain. Put plainly: MIA-induced knee joint osteoarthritis model, hind limb grip force. The format is in vivo, rat. Particulars: grip force 20 days after MIA, % return to normalcy vs naïve group. How it is done: Unilateral knee joint osteoarthritis was induced in rats by a single intra-articular (i.a.) injection of sodium monoiodoacetate (MIA) (Sigma-Aldrich, St. Louis, Mo.) (3 mg in 50 ul sterile isotonic saline) into the right knee joint cavity under light (1-3%) isoflurane anesthesia.
Pain behavior was assessed by measurement of hind limb grip force (GF) in adult osteoarthritic rats. Following the unilateral injection of MIA (male Sprague Dawley, 325-350 g, tested at 20 days following MIA injection), a behavioral measure of activity-induced pain was carried out. Measurements of the peak hind limb grip force were conducted by recording the maximum compressive force (CFmax), in grams of force, exerted on a hind limb strain gauge setup, in a commercially available grip force measurement system (Columbus Instruments, Columbus, Ohio).
During testing, each rat was gently restrained by grasping it around its rib cage and then allowed to grasp the wire mesh frame attached to the strain gauge. The experimenter then moved the animal in a rostral-to-caudal direction until the grip was broken. Each rat was sequentially tested twice at approximately 2-3 min interval to obtain a raw mean grip force (CFmax). This raw mean grip force data was in turn converted to a maximum hindlimb cumulative compressive force (CFmax), as the grams of force/kg of body weight, for each animal.
For evaluating the compound effects, the hind limb grip force was conducted 20 days following the intra-articular injection of MIA. A group of age-matched naïve (not injected with MIA) animals was added as a comparator to the drug-dosed groups. The vehicle control response for each group of MIA-treated animals was defined as the 0% response (0% effect), whereas the naïve control group was defined as the normal response and as 100% effect. The % effects for each dose group was expressed as % return of response to normalcy, compared to the naïve group. That is, the % effect=(Treatment CFmax−Vehicle CFmax)/[…]]×100). All experiments evaluating drug effects in this model were conducted in a randomized blinded fashion.

As for `CN1CCN(C(=O)c2cc3cc(Cl)ccc3[nH]2)CC1` [Example 3, reference compound], the “% Effect” value reads like this: (100 micromole/kg i.p.) 21%; (250 micromole/kg i.p.) 47%.
